# Measured values as given in ChEMBL document CHEMBL3217612, “Progress on lamellarins” (Medchemcomm, 2011).
# How the values were obtained:
# T47D = assay: Cytotoxicity against human T47D cells after 48 hrs by XTT assay; type: functional, cell-based
# [1] = Cytotoxicity against human HCC-S102 cells after 48 hrs by XTT assay; type: functional, cell-based; settings: HCC-S102, 48 h
# KB = assay: Cytotoxicity against human KB cells after 48 hrs by XTT assay; type: functional, cell-based
# P388 = assay: Cytotoxicity against mouse P388 cells after 48 hrs by XTT assay; type: functional, cell-based; settings: P388, 48 h
# MRC5 = assay: Cytotoxicity against human MRC5 cells after 48 hrs by XTT assay; type: cell-based; settings: MRC5, 48 h
# A549 = assay: Cytotoxicity against human A549 cells after 48 hrs by XTT assay; type: functional, cell-based; settings: A549, 48 h
# HL-60 = assay: Cytotoxicity against human HL60 cells after 48 hrs by XTT assay; type: functional, cell-based; settings: HL-60, 48 h
# [2] = Cytotoxicity against human HuCCa1 cells after 48 hrs by XTT assay; type: functional, cell-based; settings: HuCC-A1, 48 h
# HeLa = assay: Cytotoxicity against human HeLa cells after 48 hrs by XTT assay; type: functional, cell-based
# HepG2 = assay: Cytotoxicity against human HepG2 cells after 48 hrs by XTT assay; type: functional, cell-based; settings: HepG2, 48 h
# H69AR = assay: Cytotoxicity against human H69AR cells after 48 hrs by XTT assay; type: functional, cell-based
# MDA-MB-231 = assay: Cytotoxicity against human MDA-MB-231 cells after 48 hrs by XTT assay; type: functional, cell-based; settings: MDA-MB-231, 48 h
# [3] = Cytotoxicity against human MOLT3 cells after 48 hrs by XTT assay; type: functional, cell-based; settings: MOLT-3, 48 h
Structure (SMILES),IC50 (T47D) [nM],IC50 [1] [nM],IC50 (KB) [nM],IC50 (P388) [nM],IC50 (MRC5) [nM],IC50 (A549) [nM],IC50 (HL-60) [nM],IC50 [2] [nM],IC50 (HeLa) [nM],IC50 (HepG2) [nM],IC50 (H69AR) [nM],IC50 (MDA-MB-231) [nM],IC50 [3] [nM]
COc1ccc(-c2c3c4cc(OC)c(O)cc4oc(=O)c3n3ccc4cc(O)c(OC)cc4c23)cc1O,0.6,2300,60,80,> 100000,40,40,8,40,20,60,600,
COc1cc(-c2c3c4cc(OC)c(O)cc4[nH]c(=O)c3n3ccc4cc(O)c(OC)cc4c23)ccc1O,,,,,,740,,120,,130,,,30
COc1cc2c(cc1O)oc(=O)c1c2c(-c2ccc(OC)c(OC)c2)c2c3cc(OC)c(O)cc3ccn21,0.1,2100,80,80,> 97400,40,40,6,80,10,300,400,
COc1cc(-c2c3c4cc(OC)c(O)cc4oc(=O)c3n3ccc4c(O)c(OC)c(OC)cc4c23)ccc1O,9,1900,200,100,13400,40,60,60,300,20,300,100,
COc1ccc(-c2c3c4cc(OC)c(O)cc4oc(=O)c3n3ccc4c(O)c(OC)c(OC)cc4c23)cc1O,6,1600,80,300,10100,300,200,40,90,200,300,80,
COc1cc2c(cc1O)oc(=O)c1c2c(-c2ccc(OC)c(OC)c2)c2c3cc(OC)c(OC)c(O)c3ccn21,6,2100,300,300,25800,300,100,70,300,100,2300,300,
COc1cc(-c2c3c4cc(OC)c(O)cc4oc(=O)c3n3ccc4cc(O)c(OC)cc4c23)ccc1O [LAMELLARIN D],0.08,3200,40,100,9200,60,40,80,60,20,400,400,49
